Values of other authors as cited in article PMC4891657, “Orexin 2 Receptor Antagonism is Sufficient to Promote NREM and REM Sleep from Mouse to Man” (Scientific Reports, 2016).

What was measured:
[1] = tested on: OX2R; parameters: method as in PMID 24376396, PMID 24368893; details: mice, 50 mg/kg ref 37, 38; cited from earlier work
[2] = tested on: OX2R relative to OX1R; details: cited from earlier work

COc1ccnc(N2CCC3(CCCN(Cc4c[nH]c5ccccc45)C3=O)CC2)n1 [IPSU]
calculated OX2R occupancy achieved [1]: 48%
OX2R/OX1R selectivity [2]: 6.2 fold

CC1(C)OC[C@H](NC(=O)Nc2ccc(Br)cc2Br)[C@H](c2ccccc2)O1 [JNJ-10397049]
OX2R selective [2]: ~ 320 x

Cc1cc(C)nc(N2CC3CN(C(=O)c4c(F)cccc4-n4nccn4)CC3C2)n1 (centres unmarked) [JNJ-42847922]
binding selectivity for OX2R relative to OX1R [2]: ~ 80 fold

Cc1cc(NC(=O)Nc2ccc(N(C)C)cc2)c2cc(F)cc(F)c2n1 [SB-408124]
OX1R selective [2]: ~ 64 x
